The source of these data is ChEMBL document CHEMBL4385621, “Synthesis and in vitro cytotoxicity evaluation of β-carboline-combretastatin carboxamides as apoptosis inducing agents: DNA intercalation and topoisomerase-II inhibition” (Bioorg Med Chem, 2019).

One assay relates to HeLa. The assay can be described thus: Antiproliferative activity against human HeLa cells assessed as reduction in cell viability after 48 hrs by SRB assay. The class given is functional, cell-based. (Sulforhodamine B stains cellular protein and so reports cell mass.)
The test system of a further assay is DU-145. Briefly: Antiproliferative activity against human DU145 cells assessed as reduction in cell viability after 48 hrs by SRB assay. The class given is functional, cell-based. The following applies: DU-145, 48 h.
A further assay has as its system A549. Briefly: Antiproliferative activity against human A549 cells assessed as reduction in cell viability after 48 hrs by SRB assay. The format is functional, cell-based. The conditions noted are these: A549, 48 h.
Assay [1] concerns the target DNA topoisomerase II (Homo sapiens) (UniProt P11388+Q02880). The assay can be described thus: Inhibition of human topoisomerase-2 assessed as reduction in decatenation of kDNA at 10 uM incubated for 30 mins by ethidium bromide staining based agarose gel electrophoresis method. The class given is protein assay.
In assay [2] the test system is Calf thymus DNA. Briefly: Binding affinity to calf thymus DNA assessed as dissociation constant after 5 mins by UV-Visible spectroscopic method. The class given is nucleic-acid assay, Bos taurus.
The test system of assay [3] is Calf thymus DNA. The assay can be described thus: Binding affinity to calf thymus DNA assessed as decrease in emission peak intensity by spectrofluorimetric method. The class given is nucleic-acid assay. The following applies: Bos taurus.
Assay [4] deals with Calf thymus DNA. The assay can be described thus: Binding affinity to calf thymus DNA assessed as decrease in emission peak intensity using varying DNA level by spectrofluorimetric method. The format is nucleic-acid assay. The following applies: Bos taurus.
In assay [5] the test system is Calf thymus DNA. The assay can be described thus: Binding affinity to calf thymus DNA assessed as hypochromicity after 5 mins by UV-Vis absorption spectral analysis. The class given is nucleic-acid assay. The conditions noted are these: Bos taurus.
Assay [6] has as its system Calf thymus DNA. The assay can be described thus: Binding affinity to calf thymus DNA by circular dichroism spectropolarimetric analysis. The conditions noted are these: Bos taurus. The format is nucleic-acid assay.

Calls of active or inactive are those of the source. The calls are words filed in the database; no cut-off is given here.

By IC50 is commonly meant the midpoint of a concentration-inhibition curve. As for `COc1ccc(/C=C(/C(=O)NCc2cc3c([nH]c4ccccc43)c(-c3cc(OC)c(OC)c(OC)c3)n2)c2cc(OC)c(OC)c(OC)c2)cc1`, the figures for the half-maximal inhibitory concentration (IC50) in the assay with HeLa, with DU-145 and in the assay on A549 were 19.5 µM, 6.67 µM and 2.23 µM, respectively.
Taken in the same sequence, the figures for `COc1ccc(-c2nc(CNC(=O)/C(=C/c3cccc(F)c3)c3cc(OC)c(OC)c(OC)c3)cc3c2[nH]c2ccccc23)cc1` were 27.6 µM, 4.07 µM and 3.54 µM.
Taken in the same sequence, the figures for `COc1cc(/C=C(/C(=O)NCc2cc3c([nH]c4ccccc43)c(-c3cc(OC)c(OC)c(OC)c3)n2)c2cc(OC)c(OC)c(OC)c2)cc(OC)c1OC` were 36.4 µM, 15.7 µM and 10.6 µM.
For the molecule `COc1ccc2c(c1)[nH]c1c(C)nccc12` [HARMINE], the half-inhibitory concentration (IC50) in the assay on HeLa turned out to be 9.66 µM; in the assay with DU-145 it was 9.63 µM; in the assay with A549, 5.89 µM.
Taken in the same sequence, the figures for `COc1ccc(/C=C(/C(=O)NCc2cc3c([nH]c4ccccc43)c(-c3cccc(F)c3)n2)c2cc(OC)c(OC)c(OC)c2)cc1` were 39.5 µM, 12.6 µM and 12.9 µM.
Taken in the same sequence, the figures for `COc1cc(/C=C(/C(=O)NCc2cc3c([nH]c4ccccc43)c(-c3cccc(F)c3)n2)c2cc(OC)c(OC)c(OC)c2)ccc1OC(C)=O` were 26.1 µM, 11.7 µM and 14.2 µM.
`COc1ccc(-c2nc(CNC(=O)/C(=C/c3ccc(OC(C)=O)c(OC)c3)c3cc(OC)c(OC)c(OC)c3)cc3c2[nH]c2ccccc23)cc1`: the 50% inhibitory concentration (IC50) in the assay on HeLa was determined as 11.9 µM; in the assay with DU-145 it was 9.78 µM; with A549, 5.49 µM.
In the same order, the values of `CCOc1ccccc1/C=C(/C(=O)NCc1cc2c([nH]c3ccccc32)c(-c2cccc(F)c2)n1)c1cc(OC)c(OC)c(OC)c1` are 14 µM, 2.18 µM and 2.95 µM.
Taken in the same sequence, the figures for `COc1ccc(/C=C(/C(=O)NCc2cc3c([nH]c4ccccc43)c(-c3cccc(F)c3)n2)c2cc(OC)c(OC)c(OC)c2)cc1OC(C)=O` were 13.6 µM, 2.46 µM and 3.07 µM.
In the same order, the values of `COc1ccc(/C=C(/C(=O)NCc2cc3c([nH]c4ccccc43)c(-c3cc(OC)c(OC)c(OC)c3)n2)c2cc(OC)c(OC)c(OC)c2)cc1OC(C)=O` are 18 µM, 7.06 µM and 1.16 µM.
As for `CCOc1ccccc1/C=C(/C(=O)NCc1cc2c([nH]c3ccccc32)c(-c2cc(OC)c(OC)c(OC)c2)n1)c1cc(OC)c(OC)c(OC)c1`, the IC50 in the assay on HeLa is 18.2 µM; in the assay on DU-145 it was 16.1 µM; in the assay on A549, 18.4 µM.
In the same order, the values of `COc1ccc(-c2nc(CNC(=O)/C(=C/c3ccc(OC)c(O)c3)c3cc(OC)c(OC)c(OC)c3)cc3c2[nH]c2ccccc23)cc1` are 18 µM, 10.2 µM and 3.09 µM.
In the same order, the values of `COc1ccc(-c2nc(CNC(=O)/C(=C/c3ccc(OC)c(OC(C)=O)c3)c3cc(OC)c(OC)c(OC)c3)cc3c2[nH]c2ccccc23)cc1` are 8.41 µM, 3.54 µM and 2.75 µM.
In the same order, the values of `CCOc1ccccc1/C=C(/C(=O)NCc1cc2c([nH]c3ccccc32)c(-c2ccc(OC)cc2)n1)c1cc(OC)c(OC)c(OC)c1` are 16.3 µM, 10.9 µM and 11.7 µM.
Take `COc1ccc(-c2nc(CNC(=O)/C(=C/c3ccc(Cl)cc3)c3cc(OC)c(OC)c(OC)c3)cc3c2[nH]c2ccccc23)cc1`: the IC50 with HeLa stood at 37.5 µM; in the assay on DU-145 it was 13 µM; in the assay with A549, 9.65 µM.
In the same order, the values of `COc1ccc(/C=C(/C(=O)NCc2cc3c([nH]c4ccccc43)c(-c3cc(OC)c(OC)c(OC)c3)n2)c2cc(OC)c(OC)c(OC)c2)cc1O` are 23.1 µM, 7.88 µM and 7.55 µM.
In the same order, the values of `COc1cc(/C(=C\c2ccc(Cl)cc2)C(=O)NCc2cc3c([nH]c4ccccc43)c(-c3cccc(F)c3)n2)cc(OC)c1OC` are 31.3 µM, 8.44 µM and 22.2 µM.
In the same order, the values of `COc1cc(/C=C(/C(=O)NCc2cc3c([nH]c4ccccc43)c(-c3cc(OC)c(OC)c(OC)c3)n2)c2cc(OC)c(OC)c(OC)c2)cc(OC)c1` are 29.9 µM, 11.1 µM and 3.38 µM.
Consider `COc1cc(/C(=C\c2ccc(C)cc2)C(=O)NCc2cc3c([nH]c4ccccc43)c(-c3cccc(F)c3)n2)cc(OC)c1OC`, for which the half-inhibitory concentration (IC50) in the assay on HeLa is 14 µM; with DU-145, 1.81 µM; in the assay with A549, 1.31 µM.
In the same order, the values of `COc1cc(/C(=C\c2ccc(C)cc2)C(=O)NCc2cc3c([nH]c4ccccc43)c(-c3cc(OC)c(OC)c(OC)c3)n2)cc(OC)c1OC` are 4.46 µM, 2.63 µM and 1.12 µM.
In the same order, the values of `COc1cc(/C(=C\c2cccc(F)c2)C(=O)NCc2cc3c([nH]c4ccccc43)c(-c3cccc(F)c3)n2)cc(OC)c1OC` are 19.7 µM, 3.89 µM and 2.88 µM.
Taken in the same sequence, the figures for `COc1cc(/C(=C\c2ccc(C(F)(F)F)cc2)C(=O)NCc2cc3c([nH]c4ccccc43)c(-c3cc(OC)c(OC)c(OC)c3)n2)cc(OC)c1OC` were 14.7 µM, 2.04 µM and 1.11 µM.
For the molecule `COc1cc(/C=C(/C(=O)NCc2cc3c([nH]c4ccccc43)c(-c3cccc(F)c3)n2)c2cc(OC)c(OC)c(OC)c2)cc(OC)c1OC`, the half-maximal inhibitory concentration (IC50) in the assay with HeLa came out at 23.8 µM; in the assay with DU-145, 9.84 µM; in the assay on A549, 12.3 µM.
In the same order, the values of `COc1ccc(-c2nc(CNC(=O)/C(=C/c3ccc(O)c(OC)c3)c3cc(OC)c(OC)c(OC)c3)cc3c2[nH]c2ccccc23)cc1` are 6.31 µM, 2.81 µM and 1.79 µM.
For `COc1cc(/C=C(/C(=O)NCc2cc3c([nH]c4ccccc43)c(-c3cccc(F)c3)n2)c2cc(OC)c(OC)c(OC)c2)ccc1O`, the figures for the IC50 in the assay on HeLa, in the assay on DU-145 and in the assay with A549 were 19.1 µM, 2.44 µM and 2.55 µM, respectively.
Taken in the same sequence, the figures for `COc1ccc(-c2nc(CNC(=O)/C(=C/c3ccc(C)cc3)c3cc(OC)c(OC)c(OC)c3)cc3c2[nH]c2ccccc23)cc1` were 14.5 µM, 2.57 µM and 1.38 µM.
Taken in the same sequence, the figures for `COc1cc(/C=C(/C(=O)NCc2cc3c([nH]c4ccccc43)c(-c3cccc(F)c3)n2)c2cc(OC)c(OC)c(OC)c2)cc(OC)c1` were 17.2 µM, 2.57 µM and 1.99 µM.
In the same order, the values of `COc1cc(/C(=C\c2cccc(F)c2)C(=O)NCc2cc3c([nH]c4ccccc43)c(-c3cc(OC)c(OC)c(OC)c3)n2)cc(OC)c1OC` are 42.2 µM, 15.8 µM and 2.08 µM.
As for `COc1cc(/C=C(/C(=O)NCc2cc3c([nH]c4ccccc43)c(-c3cc(OC)c(OC)c(OC)c3)n2)c2cc(OC)c(OC)c(OC)c2)ccc1OC(C)=O`, the IC50 in the assay with HeLa is 50.1 µM; in the assay with DU-145 it was 8.35 µM; with A549 it was 7.08 µM.
In the same order, the values of `COc1cc(/C=C(/C(=O)NCc2cc3c([nH]c4ccccc43)c(-c3cc(OC)c(OC)c(OC)c3)n2)c2cc(OC)c(OC)c(OC)c2)ccc1O` are 40.7 µM, 13.3 µM and 5.27 µM.
Taken in the same sequence, the figures for `COc1ccc(/C=C(/C(=O)NCc2cc3c([nH]c4ccccc43)c(-c3cccc(F)c3)n2)c2cc(OC)c(OC)c(OC)c2)cc1O` were 9.68 µM, 1.87 µM and 1.62 µM.
In the same order, the values of `COc1ccc(-c2nc(CNC(=O)/C(=C/c3cc(OC)cc(OC)c3)c3cc(OC)c(OC)c(OC)c3)cc3c2[nH]c2ccccc23)cc1` are 21.7 µM, 3.09 µM and 2.76 µM.
Regarding `COc1cc(/C(=C\c2ccc(Cl)cc2)C(=O)NCc2cc3c([nH]c4ccccc43)c(-c3cc(OC)c(OC)c(OC)c3)n2)cc(OC)c1OC`, the concentration for half-maximal inhibition (IC50) worked out at 17.6 µM in the assay with HeLa, 8.1 µM with DU-145 and 6.59 µM in the assay with A549.
Taken in the same sequence, the figures for `COc1cc([C@@H]2c3cc4c(cc3[C@@H](O[C@@H]3O[C@@H]5CO[C@@H](C)O[C@H]5[C@H](O)[C@H]3O)[C@H]3COC(=O)[C@H]23)OCO4)cc(OC)c1O` [ETOPOSIDE] were 2.66 µM, 2.47 µM and 2.17 µM.
The term Kd denotes the concentration at which binding is half-saturated. For the molecule `COc1ccc(-c2nc(CNC(=O)/C(=C/c3ccc(C(F)(F)F)cc3)c3cc(OC)c(OC)c(OC)c3)cc3c2[nH]c2ccccc23)cc1`, the IC50 came out at 3.16 µM with HeLa, 1.37 µM in the assay with DU-145 and 1.17 µM in the assay on A549. In addition, the inhibition result in assay [1] was “Active”. The Kd in the assay on Calf thymus DNA [2] stood at 112 µM. Further, the result with Calf thymus DNA [3], with Calf thymus DNA [4], in the assay with Calf thymus DNA [5] and with Calf thymus DNA [6] was Active.
